In ChEMBL document CHEMBL3885881, “DrugMatrix”:
“And” between values parts separate entries of the source, which are not always exact repeats. Equal entries are not always repeated.

Species on record: Rattus norvegicus
Assay type: toxicity, organism-based, Sprague-Dawley
Settings: in vivo, sc, 24 h, route mini-PUMP - SUBCUTANEOUS, time 1 day, vehicle 100 % SALINE; for ALBUMIN / ALKALINE PHOSPHATASE / ASPARTATE AMINOTRANSFERASE / BLOOD UREA NITROGEN / CARBON DIOXIDE / CHOLESTEROL / CREATINE PHOSPHOKINASE / CREATININE / GLUCOSE / LACTATE DEHYDROGENASE / PHOSPHORUS / POTASSIUM / SODIUM / TOTAL BILIRUBIN / URIC ACID: tissue Plasma
[1] = 0 mg/kg, vehicle control, tissue Blood, dose level Control
[2] = 0 mg/kg, vehicle control, dose level Control
[3] = 0.5 mg/kg, tissue Blood, dose level High
[4] = […], tissue Blood, dose 0.72 mg/Kg, dose level High
[5] = […], dose 0.72 mg/Kg, dose level High

Description: DrugMatrix - Regimen: Single

For CC[C@H](C)[C@H](NC(=O)[C@H](Cc1ccc(O)cc1)NC(=O)[C@@H](NC(=O)[C@H](CCCNC(=N)N)NC(=O)[C@@H](N)CC(=O)O)C(C)C)C(=O)N[C@@H](Cc1cnc[nH]1)C(=O)N1CCC[C@H]1C(=O)N[C@@H](Cc1ccccc1)C(=O)O [ANGIOTENSIN II], the “ABSOLUTE SEGMENTED NEUTROPHIL” value [1] was 1753.5 CELLS/uL, the BASOPHIL [1] was 0.4% and 0% and the EOSINOPHIL [1] was 0.3% and 0.17%. For the same compound, the “ERYTHROCYTE COUNT” value [1] was 6.25 x10E6/uL and 5.64 x10E6/uL, the HEMATOCRIT [1] was 41.8% and 34.52% and the HEMOGLOBIN [1] was 13.33 G/DL and 12.68 G/DL. For the same compound, the “LEUKOCYTE COUNT” value [1] was 11.55 x10E3/uL and 13 x10E3/uL, the “MEAN CORPUSCULAR HEMOGLOBIN” value [1] was 21.37 pg and 22.5 pg and the “MEAN CORPUSCULAR HEMOGLOBIN CONCENTRATION” value [1] was 31.93 G/DL and 36.78 G/DL. The “MEAN CORPUSCULAR VOLUME” value [1] was 66.93 fL and 61.18 fL, the MONOCYTE [1] was 2.4% and 1.83% and the NEUTROPHIL [1] was 23.4% and 13.5%. The “NUCLEATED RED BLOOD CELLS” value [1] was 0.17 /100WBC, the “PLATELET COUNT” value [1] was 1265.33 x10E3/uL and 679.17 x10E3/uL and the ALBUMIN [2] was 3.63 G/DL and 3.77 G/DL. The “ALKALINE PHOSPHATASE” value [2] was 385.33 u/L and 291.17 u/L, the “ASPARTATE AMINOTRANSFERASE” value [2] was 79.33 u/L and 74.5 u/L and the “BLOOD UREA NITROGEN” value [2] was 13.33 mg/dL and 15.33 mg/dL. For the same compound, the “CARBON DIOXIDE” value [2] was 40.67 mmol/L and 30 mmol/L, the CHOLESTEROL [2] was 86.33 mg/dL and 65.33 mg/dL and the “CREATINE PHOSPHOKINASE” value [2] was 190.33 u/L. The CREATININE [2] was 0.4 mg/dL and 0.15 mg/dL, the GLUCOSE [2] was 165.67 mg/dL and 179.83 mg/dL and the “LACTATE DEHYDROGENASE” value [2] was 103.33 u/L and 162.67 u/L. For the same compound, the PHOSPHORUS [2] was 11.7 mg/dL and 12.2 mg/dL, the POTASSIUM [2] was 5.5 MEQ/L and 5.73 MEQ/L and the SODIUM [2] was 145 MEQ/L and 144.7 MEQ/L. The “TOTAL BILIRUBIN” value [2] was 0.27 mg/dL and 0.15 mg/dL, the “URIC ACID” value [2] was 1 mg/dL and 1.93 mg/dL and the ABSOLUTE BASOPHIL [3] was 13.3 cells/µL. The ABSOLUTE EOSINOPHIL [3] was 46.7 cells/µL, the ABSOLUTE LYMPHOCYTE [3] was 5400 cells/µL and the ABSOLUTE MONOCYTE [3] was 230 cells/µL. For the same compound, the BASOPHIL [3] was 0.13%, the EOSINOPHIL [3] was 0.6% and the “ERYTHROCYTE COUNT” value [3] was 6.26 x10E6/uL. For the same compound, the HEMATOCRIT [3] was 42.23%, the HEMOGLOBIN [3] was 13.53 G/DL and the “LEUKOCYTE COUNT” value [3] was 7.88 x10E3/uL. The “MEAN CORPUSCULAR HEMOGLOBIN” value [3] was 21.63 pg, the “MEAN CORPUSCULAR HEMOGLOBIN CONCENTRATION” value [3] was 32.03 G/DL and the “MEAN CORPUSCULAR VOLUME” value [3] was 67.47 fL. For the same compound, the MONOCYTE [3] was 2.8%, the NEUTROPHIL [3] was 26.93% and the “PLATELET COUNT” value [3] was 1308.33 x10E3/uL. For the same compound, the ALBUMIN (0.5 mg/kg, dose level High) was 3.93 G/DL, the “ALKALINE PHOSPHATASE” value (0.5 mg/kg, dose level High) was 341.33 u/L and the “ASPARTATE AMINOTRANSFERASE” value (0.5 mg/kg, dose level High) was 74 u/L. The “BLOOD UREA NITROGEN” value (0.5 mg/kg, dose level High) was 14 mg/dL, the “CARBON DIOXIDE” value (0.5 mg/kg, dose level High) was 42.67 mmol/L and the CHOLESTEROL (0.5 mg/kg, dose level High) was 106.33 mg/dL. For the same compound, the “CREATINE PHOSPHOKINASE” value (0.5 mg/kg, dose level High) was 299.33 u/L, the CREATININE (0.5 mg/kg, dose level High) was 0.5 mg/dL and the GLUCOSE (0.5 mg/kg, dose level High) was 169.33 mg/dL. For the same compound, the “LACTATE DEHYDROGENASE” value (0.5 mg/kg, dose level High) was 65.33 u/L, the PHOSPHORUS (0.5 mg/kg, dose level High) was 11.73 mg/dL and the POTASSIUM (0.5 mg/kg, dose level High) was 5.2 MEQ/L. For the same compound, the SODIUM (0.5 mg/kg, dose level High) was 146.33 MEQ/L, the “TOTAL BILIRUBIN” value (0.5 mg/kg, dose level High) was 0.2 mg/dL and the “URIC ACID” value (0.5 mg/kg, dose level High) was 0.93 mg/dL. The “ABSOLUTE EOSINOPHIL” value [4] was 30.33 CELLS/uL, the “ABSOLUTE LYMPHOCYTE” value [4] was 10495 CELLS/uL and the “ABSOLUTE MONOCYTE” value [4] was 212 CELLS/uL. For the same compound, the “ABSOLUTE SEGMENTED NEUTROPHIL” value [4] was 2262.67 CELLS/uL, the BASOPHIL [4] was 0% and the EOSINOPHIL [4] was 0.33%. For the same compound, the “ERYTHROCYTE COUNT” value [4] was 6.56 x10E6/uL, the HEMATOCRIT [4] was 38.97% and the HEMOGLOBIN [4] was 14.37 G/DL. The “LEUKOCYTE COUNT” value [4] was 13 x10E3/uL, the “MEAN CORPUSCULAR HEMOGLOBIN” value [4] was 21.9 pg and the “MEAN CORPUSCULAR HEMOGLOBIN CONCENTRATION” value [4] was 36.87 G/DL. For the same compound, the “MEAN CORPUSCULAR VOLUME” value [4] was 59.37 fL, the MONOCYTE [4] was 1.67% and the NEUTROPHIL [4] was 17.67%. For the same compound, the “NUCLEATED RED BLOOD CELLS” value [4] was 0.33 /100WBC, the “PLATELET COUNT” value [4] was 1167.67 x10E3/uL and the ALBUMIN [5] was 4 G/DL. The “ALKALINE PHOSPHATASE” value [5] was 462 u/L, the “ASPARTATE AMINOTRANSFERASE” value [5] was 98.67 u/L and the “BLOOD UREA NITROGEN” value [5] was 19 mg/dL. For the same compound, the “CARBON DIOXIDE” value [5] was 32 mmol/L, the CHOLESTEROL [5] was 87 mg/dL and the CREATININE [5] was 0.14 mg/dL. The GLUCOSE [5] was 171 mg/dL, the “LACTATE DEHYDROGENASE” value [5] was 143.33 u/L and the PHOSPHORUS [5] was 13.13 mg/dL. For the same compound, the POTASSIUM [5] was 6.48 MEQ/L, the SODIUM [5] was 141.6 MEQ/L and the “TOTAL BILIRUBIN” value [5] was 0.2 mg/dL. The “URIC ACID” value [5] was 2.37 mg/dL.
